The record followed here is patent publication US20150368242A1, “NOVEL TETRAHYDROPYRIDOPYRIMIDINONE DERIVATIVE” (Ajinomoto Co., Inc., priority 2013, published 2015).

A word on the IC50: it is the point on the concentration scale where inhibition reaches its midpoint.

This assay concerns the target T1, recombinant human MGAT2 enzyme (Homo sapiens, UniProt Q3SYC2).
T1 construct: made in house; host or cells: CHO-K1 (Jump-In CHO-K1 Kit, Life Technologies); microsomal fraction used as the enzyme solution
Kind of assay: Test for human MGAT2 activity inhibitory action (14C-oleoyl CoA, recombinant enzyme microsomes). Type of assay: biochemical. Further details: key to Potency relative to Comparative Example 1 (higher = more potent): % inhibition = {1−(C−B)/(A−B)}×100, B = 10 μM Comparative Example 1. Conditions: for IC50: read-out: IC50. Here is the method:
The human MGAT2 gene described in Am. J. Physiol. Endocrinol. Metab. 285: E927-E937, 2003 was expressed using Jump-In™ CHO-K1 Kit (Life technologies) as described in the attached manual. The cells were suspended in a buffer containing Tris-hydrochloric acid (pH 7.4) at a final concentration of 1 mM, 1 mM ethylenediaminetetraacetic acid, 1 mM dithiothreitol, 250 mM sucrose, and complete protease inhibitor cocktail (Roche applied Science), and then disrupted using a Teflon homogenizer (AS ONE Corporation), followed by centrifugation at 130 g for 10 minutes. The supernatant was further centrifuged at 100,000 g for 1 hour to obtain a pellet as microsomes containing the recombinant enzyme, and a solution obtained by suspending this pellet at a protein concentration of about 800 to 1900 μg/ml was used as an MGAT recombinant enzyme solution.
To a buffer containing 50 mM Tris-hydrochloric acid (pH 7.4), 6 mM magnesium chloride, and 2 mg/mL bovine serum albumin, a test compound was added, and the final concentration of dimethyl sulfoxide was adjusted to 0.3%. Moreover, 2-monooleoyl glycerol, oleoyl CoA, 1-^14C-oleoyl CoA (Perkin Elmer), and orlistat (SIGMA) were added at final concentrations of 50 μM, 50 μM, 2.2 μM, and 8.3 μM, respectively, followed by incubation at 37° C. for 10 minutes. After 10 minutes, the recombinant human MGAT2 enzyme solution was added at a final concentration of 0.67 μg/mL, and the reaction was started, with the amount of the reaction solution being 150 μl. The reaction was carried out at 37° C. for 30 minutes.
After 30 minutes, the reaction was stopped by adding 300 μl of isopropanol:heptane:water=(80:20:2) to the reaction liquid. Further, 200 μl of heptane and 100 μl of water were added, followed by stirring. Then, 100 μl of the upper layer was transferred to a 96-well plate (Corning), and mixed with 100 μl of liquid scintillator (LumaSafe Plus, Lumac). Then, the ^14C count was quantitatively determined using TopCount NXT™ microplate scintillation luminescence counter (Perkin Elmer).
The ^14C count in a case where no test compound was added was defined as A, the ^14C count in a case where 10 μM of the compound (Comparative Example 1) of Example No. 8 of WO2008/038768 was added was defined as B, and the ^14C count in the case where the test compound was added was taken as C. For this case, {1−(C−B)/(A−B)}×100(%) was calculated as the human MGAT2 activity inhibition ratio of the test compound (shown in the column named vs Comp. Ex. 1 in the following Table). A greater value of the “vs Comparative Example 1” means that the MGAT2 activity inhibitory action of the compound of Example was higher as compared to the MGAT2 activity inhibitory action of the compound of Comparative Example 1 (i.e., the human MGAT2 activity inhibition ratio was higher). […] Since this evaluation test was conducted for two separate groups, the test results of the two groups are shown separately in Table (First Test) and Table 4 (Second Test).
Next, the compounds of Examples 25 to 60 of the present invention were also investigated for their pharmacological action by using the same method as in Examples 1 to 24. […] Note that, a comparative evaluation test against the compound of Comparative Example 1 was conducted for each of the compounds of Examples (in every measurement of the inhibitory activity of the compounds of Examples 25 to 60, the inhibitory activity of the compound of Comparative Example 1 was measured). The 50% inhibition concentrations of Comparative Example 1 in the measurement of the inhibitory activities of the compounds of Examples 25 to 60 were shown in Table 5 as “IC50 (nM) of Comparative Example 1.”

Where [1] appears, read: First Test (Table 3), relative to Comparative Example 1, greater value = higher inhibitory action.
The mark [2] stands for this setting: Second Test (Table 4), relative to Comparative Example 1.

Structures can show the parent of a compound that is named as a salt. Where two headings read alike, the source gives them in different places.

T1 sequence (Q3SYC2 whole entry): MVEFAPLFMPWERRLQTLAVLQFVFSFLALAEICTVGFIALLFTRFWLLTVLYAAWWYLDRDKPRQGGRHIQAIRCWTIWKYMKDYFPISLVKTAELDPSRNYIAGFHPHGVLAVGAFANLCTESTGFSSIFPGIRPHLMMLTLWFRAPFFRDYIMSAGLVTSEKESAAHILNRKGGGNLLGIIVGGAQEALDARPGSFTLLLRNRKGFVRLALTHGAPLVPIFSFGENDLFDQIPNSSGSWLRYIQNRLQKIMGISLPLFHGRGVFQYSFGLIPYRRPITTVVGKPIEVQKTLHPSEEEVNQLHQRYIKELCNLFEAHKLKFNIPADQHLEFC

Regarding `O=C(CNCc1ccc(C(F)(F)F)cc1)N1CCc2nc(SC3CCC3)n(-c3ccccc3)c(=O)c2C1` [Example 1, 2-cyclobutylsulfanyl-3-phenyl-6-[2-[[4-(trifluoromethyl)phenyl]methylamino]acetyl]-7,8-dihydro-5H-pyrido[4,3-d]pyrimidin-4-one trifluoroacetate], where the note is “First Test (Table 3)”, the IC50 was 4.1 nM. The “Potency relative to Comparative Example 1 (higher = more potent)” value under setting [1] is listed as 54.

On to `O=C(CNCCCc1ccccc1)N1CCc2nc(SC3CCC3)n(-c3ccccc3)c(=O)c2C1` [Example 2, 2-cyclobutylsulfanyl-3-phenyl-6-[2-(3-phenylpropylamino)acetyl]-7,8-dihydro-5H-pyrido[4,3-d]pyrimidin-4-one trifluoroacetate], for which, where the note is “First Test (Table 3)”, the half-maximal inhibitory concentration (IC50) amounted to 1.3 nM. Under setting [1], the “Potency relative to Comparative Example 1 (higher = more potent)” value amounted to 171.

`O=C(CNCc1ccc(Cl)cc1)N1CCc2nc(SC3CCC3)n(-c3ccccc3)c(=O)c2C1` [Example 3, 6-[2-[(4-chlorophenyl)methylamino]acetyl]-2-cyclobutylsulfanyl-3-phenyl-7,8-dihydro-5H-pyrido[4,3-d]pyrimidin-4-one trifluoroacetate]: under “First Test (Table 3)”, the IC50 was found to be 3.7 nM. Also, the “Potency relative to Comparative Example 1 (higher = more potent)” value under setting [1] is reported as 60.

Take `O=C(CNCc1cccc(Cl)c1)N1CCc2nc(SC3CCC3)n(-c3ccccc3)c(=O)c2C1` [Example 4, 6-[2-[(3-chlorophenyl)methylamino]acetyl]-2-cyclobutylsulfanyl-3-phenyl-7,8-dihydro-5H-pyrido 4,3-[d]pyrimidin-4-one trifluoroacetate]: the IC50 (First Test (Table 3)) was 2.9 nM. In addition, the “Potency relative to Comparative Example 1 (higher = more potent)” value under setting [1] was determined as 77.

Take `O=C(CNCc1ccc(OCc2ccc(C(F)(F)F)cc2)cc1)N1CCc2nc(SC3CCC3)n(-c3ccccc3)c(=O)c2C1` [Example 6, 2-cyclobutylsulfanyl-3-phenyl-6-[2-[[4-[[4-(trifluoromethyl)phenyl]methoxy]phenyl]methylamino]acetyl]-7,8-dihydro-5H-pyrido[4,3-d]pyrimidin-4-one hydrate trifluoroacetate]: the IC50 (First Test (Table 3)) was found to be 1.6 nM. Also, the “Potency relative to Comparative Example 1 (higher = more potent)” value under setting [1] worked out at 144.

On to `O=C(CNCc1ccc(COc2ccccc2)cc1)N1CCc2nc(SC3CCC3)n(-c3ccccc3)c(=O)c2C1` [Example 7, 2-cyclobutylsulfanyl-6-[2-[[4-(phenoxymethyl)phenyl]methylamino]acetyl]-3-phenyl-7,8-dihydro-5H-pyrido[4,3-d]pyrimidin-4-one trifluoroacetate], for which the IC50 (First Test (Table 3)) worked out at 2.3 nM. Further, under setting [1], the “Potency relative to Comparative Example 1 (higher = more potent)” value came to 75.

With `O=C(CNCCc1ccccc1)N1CCc2nc(SC3CCC3)n(-c3ccccc3)c(=O)c2C1` [Example 8, 2-cyclobutylsulfanyl-6-[2-(phenylethylamino)acetyl]-3-phenyl-7,8-dihydro-5H-pyrido[4,3-d]pyrimidin-4-one trifluoroacetate], the IC50 (First Test (Table 3)) turned out to be 3.5 nM. Further, the “Potency relative to Comparative Example 1 (higher = more potent)” value under setting [1] came to 63.

As to `O=C(CNCCOc1ccc(F)c(F)c1)N1CCc2nc(SC3CCC3)n(-c3ccccc3)c(=O)c2C1` [Example 9, 2-cyclobutylsulfanyl-6-[2-[2-(3,4-difluorophenoxy)ethylamino]acetyl]-3-phenyl-7,8-dihydro-5H-pyrido[4,3-d]pyrimidin-4-one trifluoroacetate], the IC50 (First Test (Table 3)) was found to be 3.9 nM. The “Potency relative to Comparative Example 1 (higher = more potent)” value under setting [1] came to 57.

Take `O=C(CCNCc1ccccc1)N1CCc2nc(SC3CCC3)n(-c3ccccc3)c(=O)c2C1` [Example 10, 6-[3-(benzylamino)propanoyl]-2-cyclobutylsulfanyl-3-phenyl-7,8-dihydro-5H-pyrido[4,3-d]pyrimidin-4-one trifluoroacetate]: the IC50 (First Test (Table 3)) was 0.82 nM. Also, the “Potency relative to Comparative Example 1 (higher = more potent)” value under setting [1] stood at 273.

In the case of `[2H]c1c([2H])c([2H])c(-n2c(SC3CCC3)nc3c(c2=O)CN(C(=O)CCNCc2ccccc2)CC3)c([2H])c1[2H]` [Example 11, 6-[3-(benzylamino)propanoyl]-2-cyclobutylsulfanyl-3-(2,3,4,5,6-pentadeuteriophenyl)-7,8-dihydro-5H-pyrido[4,3-d]pyrimidin-4-one trifluoroacetate], the IC50 (Second Test (Table 4)) is 1.8 nM. Moreover, the “Potency relative to Comparative Example 1 (higher = more potent)” value under setting [2] came to 166.

For the compound `O=C(CCNCc1ccccc1)N1CCc2nc(SC3CCC3)n(CC3CCC3)c(=O)c2C1` [Example 12, 6-[3-(benzylamino)propanoyl]-3-(cyclobutylmethyl)-2-cyclobutylsulfanyl-7,8-dihydro-4H-pyrido[4,3-d]pyrimidin-4-one trifluoroacetate], for the setting “Second Test (Table 4)”, the IC50 was determined as 1.4 nM. The “Potency relative to Comparative Example 1 (higher = more potent)” value under setting [2] was determined as 216.

As to `O=C(CCNCc1ccccc1)N1CCc2nc(SC3CCC3)n(C[C@H]3CCCO3)c(=O)c2C1` [Example 13, 6-[3-(benzylamino)propanoyl]-2-cyclobutylsulfanyl-3-[[(2R)-tetrahydrofuran-2-yl]methyl]-7,8-dihydro-5H-pyrido[4,3-d]pyrimidin-4-one trifluoroacetate], the IC50 (Second Test (Table 4)) amounted to 6.9 nM. Besides, under setting [2], the “Potency relative to Comparative Example 1 (higher = more potent)” value amounted to 44.

`O=C(CCNCc1ccccc1)N1CCc2nc(SC3CCC3)n(Cc3ccco3)c(=O)c2C1` [Example 14, 6-[3-(benzylamino)propanoyl]-2-cyclobutylsulfanyl-3-(2-furylmethyl)-7,8-dihydro-5H-pyrido[4,3-d]pyrimidin-4-one trifluoroacetate]: for the setting “Second Test (Table 4)”, the IC50 worked out at 4.7 nM. For the same compound, the “Potency relative to Comparative Example 1 (higher = more potent)” value under setting [2] is reported as 65.

For `O=C(CCNCc1ccccc1)N1CCc2nc(SC3CCC3)n(C3CCCC3)c(=O)c2C1` [Example 15, 6-[3-(benzylamino)propanoyl]-2-cyclobutylsulfanyl-3-cyclopentyl-7,8-dihydro-5H-pyrido[4,3-d]pyrimidin-4-one trifluoroacetate], under “Second Test (Table 4)”, the IC50 amounted to 2.4 nM. In addition, the “Potency relative to Comparative Example 1 (higher = more potent)” value under setting [2] is reported as 129.

In the case of `O=C(CCNCc1ccsc1)N1CCc2nc(SC3CCC3)n(-c3ccccc3)c(=O)c2C1` [Example 16, 2-cyclobutylsulfanyl-3-phenyl-6-[3-(3-thienylmeethylamino)propanoyl]-7,8-dihydro-5H-pyrido[4,3-d]pyrimidin-4-one trifluoroacetate], the IC50 (Second Test (Table 4)) was determined as 1.8 nM. For the same compound, the “Potency relative to Comparative Example 1 (higher = more potent)” value under setting [2] was determined as 173.

As to `COc1ccccc1CNCCC(=O)N1CCc2nc(SC3CCC3)n(-c3ccccc3)c(=O)c2C1` [Example 17, 2-cyclobutylsulfanyl-6-[3-[(2-methoxyphenyl)methylamino]propanoyl]-3-phenyl-7,8-dihydro-5H-pyrido[4,3-d]pyrimidin-4-one trifluoroacetate], where the note is “Second Test (Table 4)”, the IC50 is 2.1 nM. For the same compound, the “Potency relative to Comparative Example 1 (higher = more potent)” value under setting [2] was found to be 148.

On to `O=C(CCNCc1ccccc1F)N1CCc2nc(SC3CCC3)n(-c3ccccc3)c(=O)c2C1` [Example 18, 2-cyclobutylsulfanyl-6-[3-[(2-fluorophenyl)methylammino]propanoyl]-3-phenyl-7,8-dihydro-5H-pyrido[4,3-d]pyrimidin-4-one trifluoroacetate], for which, under “Second Test (Table 4)”, the IC50 is 2.3 nM. For the same compound, the “Potency relative to Comparative Example 1 (higher = more potent)” value under setting [2] worked out at 134.
